Tests used:
[1] = biological target: T1, Protein-S-isoprenylcysteine O-methyltransferase (Homo sapiens, UniProt O60725); assay: Inhibition of human Icmt by methanol vapour diffusion assay
[2] = biological target: T1, Protein-S-isoprenylcysteine O-methyltransferase; assay: Inhibition of human Icmt in Saccharomyces cerevisiae cell membrane relative to control by SPA; values are per cent of control; parameters: concentration or dose not given beside the values

T1 sequence (O60725 whole entry, the tested form may be a part): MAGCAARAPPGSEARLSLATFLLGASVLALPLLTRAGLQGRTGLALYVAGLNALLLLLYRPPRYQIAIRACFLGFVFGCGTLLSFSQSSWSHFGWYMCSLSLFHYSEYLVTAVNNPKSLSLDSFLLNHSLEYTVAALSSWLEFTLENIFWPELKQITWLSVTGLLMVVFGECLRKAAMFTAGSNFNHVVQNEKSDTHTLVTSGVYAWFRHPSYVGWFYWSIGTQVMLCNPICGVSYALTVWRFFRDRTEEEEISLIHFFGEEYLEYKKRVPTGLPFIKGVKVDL

Compound	IC50 [1] [µM]	residual activity [2] [%]
CC(C)=CCC/C(C)=C/CC/C(C)=C/CSC[C@H](NC(=O)c1cc(Cl)cc(Cl)c1)C(=O)O	23	33.5
CC(C)=CCC/C(C)=C/CC/C(C)=C/CSC[C@H](NC(=O)c1cc([N+](=O)[O-])cc([N+](=O)[O-])c1)C(=O)O	14.3	37.1
CC(C)=CCC/C(C)=C/CC/C(C)=C/CSC[C@H](NC(=O)c1cc2ccccc2s1)C(=O)O	20.3	28
CC(C)=CCC/C(C)=C/CC/C(C)=C/CSC[C@H](NC(=O)c1ccc([N+](=O)[O-])cc1)C(=O)O	16.6	50.1
COc1ccc(-c2ccc(C(=O)N[C@@H](CSC/C=C(\C)CC/C=C(\C)CCC=C(C)C)C(=O)O)o2)cc1	17.4	35.1

Reference: ChEMBL document CHEMBL1145318, “Amide-substituted farnesylcysteine analogs as inhibitors of human isoprenylcysteine carboxyl methyltransferase” (Bioorg Med Chem Lett, 2006)
